{"source": "patent US8287923B2", "about": "“Compositions and methods for treating immune disorders” (priority 2005, dated 2012)", "format_in_all_cases": "cell-based, human", "key": {"[1]": {"system": "NHEK", "assay": "Affymetrix gene array analysis, inflammatory gene expression", "conditions": "100 μM, vs time 0", "method": "The gene array experiment was performed at the Core Facility of Genomics of the Medical College of Georgia, according to the instructions of the manufacturer (Affymetrix, Santa Clara, Calif.). Briefly, NHEK and OSC2 cells treated with 100 μM EGCG for different time period were extracted for total RNA, the RNA was processed for probes and hybridized with a cDNA microarray (HuG133A, Affymetrix) which represents 22,283 human series. DNA chips were read with a Hewlett-Packard GeneArray Scanner at a resolution of […] and were analyzed with the GeneSpring software (Silicon Genetics, Redwood City, Calif.). Details of this analysis will be published elsewhere (Hsu et al., manuscript in preparation)."}, "[2]": {"system": "NS-SV-AC cells", "assay": "Semi-quantitative RT-PCR of SS-A/Ro and SS-B/La mRNA", "conditions": "100 uM EGCG, different times", "method": "(§1) Cell treatment: ECCG was dissolved in cell culture media as a 50 mM stock immediately before use. Exponentially growing NS-SV-AC cells were incubated with 100 μM ECCG for various time periods in the growth media described above, and then were either extracted for total RNA or cell lysates prior to RT-PCR or Western blots.\n(§2) Total RNA was extracted using an RNeasy total RNA isolation system (QIAGEN, Valentia, Calif.) RT reactions and PCR reactions were performed according to the manufacturer's protocol (Super Array Bioscience Corp). For amplification, the following pair of primers was used,\n(§3) Amplification was started by heating for 1.5 min at 94° C., followed by 30 cycles for 52 kD SSA/Ro. 25 cycles for GAPDH and 25 cycles for SSB/La, each cycle consisting of 15\n(§4) second at 94° C., 30 seconds at 57.3° C., and 1 min at 72° C. A final extension was performed at 72° C. for 5 min prior to gel analysis.\n(§5) To further test this possibility, three cell types, NHEK, NS-SV-AC (an SV40 immortalized cell line derived from human submandibular acinar cells) and OC2 cells (derived from an oral squamous cell carcinoma) were treated with 100 uM EGCG for different times. A semi-quantitative estimate of SS-A/Ro and SS-B/La mRNA levels was then obtained by RT-PCR during the exponential period of amplification. GAPDH was used as a housekeeping gene control."}, "[3]": {"system": "NHEK", "assay": "Semi-quantitative RT-PCR of SS-A/Ro and SS-B/La mRNA", "conditions": "100 uM EGCG, different times", "method": "as §1, §2, §3, §4, §5"}, "[4]": {"system": "NS-SV-AC cells", "assay": "TNF-α-induced cytotoxicity, MTT assay", "conditions": "dose-dependent; 100 ng/ml TNFα, 24 hr; p<0.05", "method": "TNF-α cyotoxicity: NS-SV-AC cells (0.5×10<4> cells/well) were seeded in a 96-well microplate and either treated for 24 hr with EGCC as described above (or not treated in the control), in the presence of 100 ng/ml TNFα and 10 μg/ml cyclohexamide. After the treatments, viability was determined by the MTT assay. The cells in each well were washed with 200 μl of phosphate-buffered saline (PBS) and incubated with 100 μl of 2% (w/v) MTT in a solution of 0.05 M Tris-HCl (pH 7.6), 0.5 mM MgCl2, 2.5 mM CoCl2 and 0.25 M disodium succinate at 37° C. for 30 min. Cells were fixed by the addition of 100 μl of 4% (v/v) formalin in 0.2 M Tris-HCl (pH 7.6), and after a 5 min incubation at room temperature liquid was removed and the wells were allowed to dry. Each well was rinsed with 200 μl water and cells were solubilized by the addition of 100 μl of 6.35% (v/v) 0.1 N NaOH in DMSO. The colored formazan product was measured by a Thermo MAX micro plate reader (Molecular Devices Corp. Sunnyvale, Calif.) at a wavelength of 562 nm.\nWe examined the effects of EGCG on TNF-α-induced cytotoxicity of the human salivary gland acinar cell line NS-SV-AC using the MTT assay.\nTo examine the role of activation of the p38 signaling pathway in reducing TNF-α-induced cytotoxicity, cells were exposed to TNF-[alpha] and EGCG in the presence of either the p38 MAPK inhibitor SB203580 or the MEK inhibitor PD98059."}}}
{"smiles": "O=C(O[C@@H]1Cc2c(O)cc(O)cc2O[C@@H]1c1cc(O)c(O)c(O)c1)c1cc(O)c(O)c(O)c1", "note": "[EGCG, (−)-epigallocatechin-3-gallate]", "values": [{"measurement": "BMP2 (205290_s_at) expression", "setting": "[1]; 0.5 h", "result": 0.32, "unit": "fold"}, {"measurement": "IFNGR1 (202727_s_at) expression", "setting": "[1]; 0.5 h", "result": 0.79, "unit": "fold"}, {"measurement": "IL1A (210118_s_at) expression", "setting": "[1]; 0.5 h", "result": 0.66, "unit": "fold"}, {"measurement": "IL1B (39402_at) expression", "setting": "[1]; 0.5 h", "result": 0.29, "unit": "fold"}, {"measurement": "IL1B (205067_at) expression", "setting": "[1]; 0.5 h", "result": 0.29, "unit": "fold"}, {"measurement": "IL6R (205945_at) expression", "setting": "[1]; 0.5 h", "result": 0.48, "unit": "fold"}, {"measurement": "IL6ST (21100_s_at) expression", "setting": "[1]; 0.5 h", "result": 0.34, "unit": "fold"}, {"measurement": "IL8 (202859_x_at) expression", "setting": "[1]; 0.5 h", "result": 6.02, "unit": "fold"}, {"measurement": "IL10RB (209575_at) expression", "setting": "[1]; 0.5 h", "result": 0.43, "unit": "fold"}, {"measurement": "IL13RA2 (206172_at) expression", "setting": "[1]; 0.5 h", "result": 0.33, "unit": "fold"}, {"measurement": "IL18 (206295_at) expression", "setting": "[1]; 0.5 h", "result": 0.33, "unit": "fold"}, {"measurement": "TNFSF15 (221085_at) expression", "setting": "[1]; 0.5 h", "result": 0.52, "unit": "fold"}, {"measurement": "p38 (21156_x_at) expression", "setting": "[1]; 0.5 h", "result": 2.32, "unit": "fold"}, {"measurement": "p38 (202530_at) expression", "setting": "[1]; 0.5 h", "result": 2.51, "unit": "fold"}, {"measurement": "BMP2 (205290_s_at) expression", "setting": "[1]; 2 h", "result": 0.96, "unit": "fold"}, {"measurement": "IFNGR1 (202727_s_at) expression", "setting": "[1]; 2 h", "result": 0.91, "unit": "fold"}, {"measurement": "IL1A (210118_s_at) expression", "setting": "[1]; 2 h", "result": 0.42, "unit": "fold"}, {"measurement": "IL1B (39402_at) expression", "setting": "[1]; 2 h", "result": 0.48, "unit": "fold"}, {"measurement": "IL1B (205067_at) expression", "setting": "[1]; 2 h", "result": 0.58, "unit": "fold"}, {"measurement": "IL6R (205945_at) expression", "setting": "[1]; 2 h", "result": 0.69, "unit": "fold"}, {"measurement": "IL6ST (21100_s_at) expression", "setting": "[1]; 2 h", "result": 0.28, "unit": "fold"}, {"measurement": "IL8 (202859_x_at) expression", "setting": "[1]; 2 h", "result": 9.55, "unit": "fold"}, {"measurement": "IL10RB (209575_at) expression", "setting": "[1]; 2 h", "result": 0.63, "unit": "fold"}, {"measurement": "IL13RA2 (206172_at) expression", "setting": "[1]; 2 h", "result": 0.74, "unit": "fold"}, {"measurement": "IL18 (206295_at) expression", "setting": "[1]; 2 h", "result": 0.65, "unit": "fold"}, {"measurement": "TNFSF15 (221085_at) expression", "setting": "[1]; 2 h", "result": 1.56, "unit": "fold"}, {"measurement": "p38 (21156_x_at) expression", "setting": "[1]; 2 h", "result": 1.46, "unit": "fold"}, {"measurement": "p38 (202530_at) expression", "setting": "[1]; 2 h", "result": 1.09, "unit": "fold"}, {"measurement": "BMP2 (205290_s_at) expression", "setting": "[1]; 6 h", "result": 0.72, "unit": "fold"}, {"measurement": "IFNGR1 (202727_s_at) expression", "setting": "[1]; 6 h", "result": 0.45, "unit": "fold"}, {"measurement": "IL1A (210118_s_at) expression", "setting": "[1]; 6 h", "result": 0.54, "unit": "fold"}, {"measurement": "IL1B (39402_at) expression", "setting": "[1]; 6 h", "result": 0.40, "unit": "fold"}, {"measurement": "IL1B (205067_at) expression", "setting": "[1]; 6 h", "result": 0.49, "unit": "fold"}, {"measurement": "IL6R (205945_at) expression", "setting": "[1]; 6 h", "result": 0.31, "unit": "fold"}, {"measurement": "IL6ST (21100_s_at) expression", "setting": "[1]; 6 h", "result": 0.99, "unit": "fold"}, {"measurement": "IL8 (202859_x_at) expression", "setting": "[1]; 6 h", "result": 9.99, "unit": "fold"}, {"measurement": "IL10RB (209575_at) expression", "setting": "[1]; 6 h", "result": 0.76, "unit": "fold"}, {"measurement": "IL13RA2 (206172_at) expression", "setting": "[1]; 6 h", "result": 0.81, "unit": "fold"}, {"measurement": "IL18 (206295_at) expression", "setting": "[1]; 6 h", "result": 0.70, "unit": "fold"}, {"measurement": "TNFSF15 (221085_at) expression", "setting": "[1]; 6 h", "result": 0.67, "unit": "fold"}, {"measurement": "p38 (21156_x_at) expression", "setting": "[1]; 6 h", "result": 1.62, "unit": "fold"}, {"measurement": "p38 (202530_at) expression", "setting": "[1]; 6 h", "result": 0.63, "unit": "fold"}, {"measurement": "BMP2 (205290_s_at) expression", "setting": "[1]; 24 h", "result": 0.44, "unit": "fold"}, {"measurement": "IFNGR1 (202727_s_at) expression", "setting": "[1]; 24 h", "result": 0.92, "unit": "fold"}, {"measurement": "IL1A (210118_s_at) expression", "setting": "[1]; 24 h", "result": 0.27, "unit": "fold"}, {"measurement": "IL1B (39402_at) expression", "setting": "[1]; 24 h", "result": 0.27, "unit": "fold"}, {"measurement": "IL1B (205067_at) expression", "setting": "[1]; 24 h", "result": 0.26, "unit": "fold"}, {"measurement": "IL6R (205945_at) expression", "setting": "[1]; 24 h", "result": 0.69, "unit": "fold"}, {"measurement": "IL6ST (21100_s_at) expression", "setting": "[1]; 24 h", "result": 0.61, "unit": "fold"}, {"measurement": "IL8 (202859_x_at) expression", "setting": "[1]; 24 h", "result": 9.93, "unit": "fold"}, {"measurement": "IL10RB (209575_at) expression", "setting": "[1]; 24 h", "result": 0.38, "unit": "fold"}, {"measurement": "IL13RA2 (206172_at) expression", "setting": "[1]; 24 h", "result": 0.55, "unit": "fold"}, {"measurement": "IL18 (206295_at) expression", "setting": "[1]; 24 h", "result": 0.65, "unit": "fold"}, {"measurement": "TNFSF15 (221085_at) expression", "setting": "[1]; 24 h", "result": 0.63, "unit": "fold"}, {"measurement": "p38 (21156_x_at) expression", "setting": "[1]; 24 h", "result": 2.51, "unit": "fold"}, {"measurement": "p38 (202530_at) expression", "setting": "[1]; 24 h", "result": 1.17, "unit": "fold"}, {"measurement": "SS-B/La mRNA level", "setting": "[2]", "result": "decreased progressively and substantially"}, {"measurement": "SS-B/La mRNA level", "setting": "[3]", "result": "decreased progressively and substantially"}, {"measurement": "protection from TNFα-induced cytotoxicity", "setting": "[4]", "result": "up to 50%"}]}
